{"source": "patent US20140066439A1", "about": "“OSTEOCLAST ACTIVITY” (Katholieke Universiteit Leuen, K.U.Leuven R&D, priority 2010, published 2014)", "format_in_all_cases": "cell-based, human", "key": {"[1]": {"system": "Peripheral Blood Mononuclear Cells (PBMCs)", "test": "Osteoclast resorption of a hydroxyapatite layer (Von Kossa, ImageJ) by PBMC-derived osteoclasts", "details": "14 days; for osteoclast activity (resorption): healthy PBMCs stimulated with RANKL and M-CSF, dose response, 10^-6, 10^-7 and 10^-8 M", "protocol": "PBMCs were isolated from the whole blood of patients or healthy volunteers by means of Ficoll-Paque Plus (GE Healthcare, Brussels, Belgium) density gradient centrifugation according to the manufacturer's instructions. Heparinized whole blood (20 ml) was drawn from each individual and diluted 1:1 with alpha minimal essential medium (α-MEM; Lonza, Braine-l'Alleud, Belgium), before being layered over Ficoll-Paque and centrifuged at 450 g for 40 min. The mononuclear cell interface was then removed and washed 3 times with α-MEM. Cells were stored in liquid nitrogen until use and seeded at a density of 5×10^5 cells per well. All cultures were performed in quadruplicate in 16-well culture slides (VWR, Leuven, Belgium) or 16-well BD Biocoat Osteologic Slides (BD Biosciences), and cells were cultured in α-MEM supplemented with 10% FBS, 100 IU/ml penicillin and 100 μg/ml streptomycin (“complete medium”), or complete medium plus M-CSF (25 ng/ml) and RANKL (30 ng/ml). […]\n(§1) After 14 days, PBMCs were fixed and stained for the osteoclast-specific marker tartrate-resistant acid phosphate (TRAP), and the nuclear marker DAPI, as previously described. The formation of TRAP positive multi-nucleated (more than three nuclei) cells was quantified by counting the multi-nuclear stained cells in each well (D'Amelio P, Grimaldi A, Pescarmona G P, Tamone C, Roato I, Isaia G. Spontaneous osteoclast formation from peripheral blood mononuclear cells in postmenopausal osteoporosis. FASEB J. 2005; 19(3):410-2.). Filamentous (F)-actin rings representing active osteoclasts were visualized after staining of the actin cytoskeleton with the toxin phalloidin conjugated to FITC, and quantified by counting, as described above. […] Lacunar resorption was determined by measuring the total area unstained by Von-Kossa (total area resorbed) using ImageJ software (National Institute of Health, MD, USA), and was expressed as the total percentage of the surface reabsorbed. […]"}, "[2]": {"system": "Peripheral Blood Mononuclear Cells (PBMCs)", "test": "Osteoclast formation: TRAP positive multinuclear cells in PBMC cultures", "details": "for TRAP positive multinuclear cells (osteoclast formation): spermidine 10^-8 M; for spontaneous osteoclast formation: 14 days", "protocol": "PBMCs were isolated from the whole blood of patients or healthy volunteers by means of Ficoll-Paque Plus (GE Healthcare, Brussels, Belgium) density gradient centrifugation according to the manufacturer's instructions. Heparinized whole blood (20 ml) was drawn from each individual and diluted 1:1 with alpha minimal essential medium (α-MEM; Lonza, Braine-l'Alleud, Belgium), before being layered over Ficoll-Paque and centrifuged at 450 g for 40 min. The mononuclear cell interface was then removed and washed 3 times with α-MEM. Cells were stored in liquid nitrogen until use and seeded at a density of 5×10^5 cells per well. All cultures were performed in quadruplicate in 16-well culture slides (VWR, Leuven, Belgium) or 16-well BD Biocoat Osteologic Slides (BD Biosciences), and cells were cultured in α-MEM supplemented with 10% FBS, 100 IU/ml penicillin and 100 μg/ml streptomycin (“complete medium”), or complete medium plus M-CSF (25 ng/ml) and RANKL (30 ng/ml). In order to study the effect of circulating factors on osteoclast formation, PBMCs were also grown in α-MEM containing 10% human healthy volunteer serum (HS) or 10% patient serum (PS), in the presence or absence of M-CSF (25 ng/ml) and RANKL (30 ng/ml). For cytokine neutralization experiments, PBMCs were grown in α-MEM/10% PS for 14 days, in the presence of varying concentrations of anti-TNF-α and/or anti-IL-6 (R&D Systems, Abingdon, UK). All cultures were maintained at 37° C. in a humidified atmosphere with 5% CO2.\nas §1"}, "p62 protein": {"system": "p62 protein", "test": "Autophagy marker p62 protein expression (western blot) in PBMCs/osteoclasts", "details": "healthy PBMCs, RANKL/MCSF stimulated, spermidine 2×10^-8 M, 14 days", "excerpt": "We also measured markers of autophagy in the cell lysates from these experiments. The concentration of proteins we obtained were quite low, and there was insufficient protein to measure anything by western blotting in the “sick spermidine” group. […] There was no effect of spermidine on the healthy PBMCs (FIG. 6).\nFIG. 6 concerns autophagy marker p62 protein expression in healthy and sick PBMCs/osteoclasts (RANKL/MCSF stimulated) and the effect of spermidine on healthy PBMCs/osteoclasts. Healthy and sick PBMCs were cultured for 14 days with or without spermidine (2×10^−8 M) in 6 well plates (5×10^6 cells/well). After 14 days, protein was extracted using the Ambion PARIS extraction kit (Applied Biosystems), and proteins quantified using the BC Protein Assay (Thermo Fischer Scientific). (A) 5 ug of protein was subjected to 15% Bis-tris gelelectrophoresis, transferred to nitrocellulose membrane and incubated at 4° C. overnight in Anti-p62 (Novus Biologicals; 1:1000). p62 protein was detected by ECL following incubation with AntiMouseIgG (DAKO; 1:1000). GAPDH was used as a loading control. (B) p62 relative expression was quantified with Image QuantTL (Amersham Biosciences) and normalized to GAPDH (n=3; ***p≦0.05 vs. Healthy)."}, "[3]": {"system": "PBMCs from critically ill patients", "test": "Osteoclast formation (TRAP staining, day 14) in PBMCs from critically ill patients cultured in critically ill patient serum", "details": "low doses, compounds added d1-d14, TRAP staining at day 14", "excerpt": "We have determined that the treatment of patient's peripheral blood mononuclear cell (PBMCs), in particular, PBMCs of critically ill patients with autophagy inducers can be used to suppress enhanced osteoclastogenesis. It turned out that a particular advantage is that such autophagy inducers can be targeted to particularly treat the PBMCs."}}, "note": "“Also recorded” adds a separate entry of the source."}
{"smiles": "NCCCCNCCCN", "note": "[Spermidine]", "values": [{"measurement": "osteoclast activity (resorption)", "setting": "[1]", "result": "reduced"}, {"measurement": "osteoclast activity (resorption)", "setting": "[1]; listed as spermidine", "result": "inhibits"}, {"measurement": "osteoclast resorption of hydroxyapatite layer", "setting": "[1]; sick stimulated (RANKL/MCSF) PBMCs, increase vs healthy, spermidine 2×10^-8 M", "result": "reduced; also recorded: completely blocked"}, {"measurement": "TRAP positive multinuclear cells (osteoclast formation)", "setting": "[2]; healthy PBMCs stimulated with RANKL and MCSF, day 14", "result": "did not, however, have a significant effect"}, {"measurement": "spontaneous osteoclast formation", "setting": "[2]; healthy unstimulated (no RANKL or MCSF) PBMCs", "result": "no effect"}, {"measurement": "TRAP positive multinuclear cells (osteoclast formation)", "setting": "[2]; sick (critically ill) PBMCs stimulated with RANKL and MCSF, day 14, vs control sick PBMCs", "result": "significant reduction; also recorded: completely blocked"}, {"measurement": "spontaneous osteoclast formation", "setting": "[2]; sick unstimulated (no RANKL or MCSF) PBMCs, increase vs healthy", "result": "completely knocked down"}, {"measurement": "p62 protein expression", "setting": "p62 protein", "result": "no effect"}, {"measurement": "critical illness enhanced osteoclast formation", "setting": "[3]", "result": "inhibiting effect"}]}
{"smiles": "CC(CN1c2ccccc2Sc2ccccc21)N(C)C", "note": "(stereo not drawn) [Promethazine, 10-(2-dimethylaminopropyl)phenothiazine]", "values": [{"measurement": "critical illness enhanced osteoclast formation", "setting": "[3]", "result": "inhibiting effect"}]}
{"smiles": "CO[C@H]1C[C@@H]2CC[C@@H](C)[C@@](O)(O2)C(=O)C(=O)N2CCCC[C@H]2C(=O)O[C@H]([C@H](C)C[C@@H]2CC[C@@H](OCCO)[C@H](OC)C2)CC(=O)[C@H](C)/C=C(\\C)[C@@H](O)[C@@H](OC)C(=O)[C@H](C)C[C@H](C)/C=C/C=C/C=C/1C", "note": "[Everolimus, 40-O-(2-hydroxyethyl)-rapamycin]", "values": [{"measurement": "critical illness enhanced osteoclast formation", "setting": "[3]", "result": "inhibiting effect"}]}
{"smiles": "Nc1ncn([C@@H]2O[C@H](CO)[C@@H](O)[C@H]2O)c(=O)n1", "note": "[5-azacytidine]", "values": [{"measurement": "critical illness enhanced osteoclast formation", "setting": "[3]", "result": "inhibiting effect"}]}
